The values that follow are results of earlier work, collected in patent US20240082136A1, “TOPICAL COMPOSITION” (LILIGER LTD., priority 2021, published 2024).

Data set [1] has as its system stratum corneum / dry skin. The following applies: topical treatment.
The test system of another data set is cutaneous vasodilation. The following applies: in vivo.

As for `Cl.N=C(N)NCCC[C@H](N)C(=O)O` [arginine hydrochloride], in data set [1], the “Clinical symptoms of dry skin” value is reported as “improvement”, the Skin moisture result is on record as “increase” and the “Urea in the stratum corneum” value is reported as “significantly increase”.
On to botulinum toxin A, for which the Cutaneous vasodilation result in the data set with cutaneous vasodilation was “eliminates”.
